The values below come from patent US11690922B2, “Lipid compound as well as lipid carrier, nucleic acid lipid nanoparticle composition and pharmaceutical preparation containing same” (Purecodon (Hong Kong) Biopharma Ltd., priority 2021, dated 2023).

Data set [1] can be described thus: Particle size, PDI, Zeta and entrapment efficiency of each LNP@mRNA. In kind it is physicochemical. To be noted: for Entrapment efficiency (%) / PDI / Particle size (nm) / Zeta (mV): luciferase mRNA; for particle size of the LNP@mRNA (in words): LNP@mRNA with cholesterol, DSPC, PEG-DMG (Example 25), compared among compounds 1-8. Here is the method:
Compounds 1-8 were respectively dissolved in ethanol together with cholesterol, DSPC, PEG-DMG at a molar ratio of 50:38.5:10:1.5, luciferase mRNA was dissolved in a 50 mM citric acid buffered saline solution with a pH of 4.0, a volume ratio of the two solutions was 1:3, two phases were rapidly mixed by using microfluidics and a buffer environment was replaced into PBS with a pH of 7.4 by using dialysis or a tangential flow, so as to remove ethanol, and eight LNP@mRNAs were respectively prepared.
Thus, it can be seen that the entrapment efficiency to the nucleic acid drug by the compound provided by the present invention is high, and, using this compound as a carrier can improve the in-vivo delivery efficiency of the nucleic acid drug.
Compounds 13, and 14 and cholesterol, DOPC, and PEG-DMG were dissolved in ethanol at a molar ratio of 50:38.5:10:1.5, luciferase mRNA was dissolved in a 50 mM citric acid buffered saline solution with a pH of 4.0, a volume ratio of the two solutions was 1:3, two phases were mixed rapidly by using microfluidics and a buffer environment was replaced into PBS with a pH of 7.4 by using dialysis or a tangential flow, so as to remove ethanol, and two LNP@mRNAs were respectively prepared.

In the next data set the test system is mice. Briefly: Fluorescence intensity and organ distribution in mice 6 hours after injection of luciferase LNP@mRNA. In kind it is in vivo. Particulars: mouse, after 6 hours; for organ distribution of mRNA expression: intramuscular injection. The method, then:
LNP@mRNAs prepared were respectively injected into a mouse body via a caudal vein or muscle, and after 6 hours, the fluorescence intensity and organ distribution in mice were tested. […] Therefore, a lipid compound with a specific structure can be chosen as a lipid carrier based on an organ in which the nucleic acid drug needs to be enriched.
LNP@mRNAs prepared were respectively injected into a mouse body via a caudal vein or muscle, and after 6 hours, the fluorescence intensity and organ distribution in mice were tested.

Data set [2] is described as follows: Zeta electric potentials of LNP@mRNA under different pHs. To be noted: Example 26 LNP (cholesterol, DOPC, PEG-DMG), FIG. 7. It is filed as physicochemical.
Setting [3] is: LNP@mRNA of compound:cholesterol:DOPC:PEG-DMG 50:38.5:10:1.5 molar, PBS pH 7.4 (Example 26).
Where [4] appears, read: LNP@mRNA of compound:cholesterol:DSPC:PEG-DMG 50:38.5:10:1.5 molar, PBS pH 7.4 (Example 25).

With `CCCCCCCCC(CCCCCC)C(=O)OCCCCOC(=O)CCN(CCCn1ccnc1)CCC(=O)OCCCCOC(=O)C(CCCCCC)CCCCCCCC` (stereo not drawn) [Compound 14], in data set [1] (setting [3]), the “Entrapment efficiency (%)” value is reported as 87%, the PDI is listed as 0.07, the “Particle size (nm)” value is 122 nm and the “Zeta (mV)” value is given as −11 mV. Also, the “organ distribution of mRNA expression” value with mice (Example 26 LNP (DOPC), FIG. 5 and 6) is given as “mainly expressed in spleen”.

With `CCCCCCCCC(CCCCCC)C(=O)OCCCCOC(=O)CCN(CCCO)CCC(=O)OCCCCOC(=O)C(CCCCCC)CCCCCCCC` (stereo not drawn) [Compound 2], in data set [1] (setting [4]), the “Entrapment efficiency (%)” value is 86%, the PDI is 0.07, the “Particle size (nm)” value stood at 68 nm and the “Zeta (mV)” value is recorded as −14 mV. In data set [1], the “particle size of the LNP@mRNA (in words)” value is given as “small”.

Regarding `CCCCCCCCC(CCCCCC)C(=O)OCCCCOC(=O)CCN(CCCCO)CCC(=O)OCCCCOC(=O)C(CCCCCC)CCCCCCCC` (stereo not drawn) [Compound 3], in data set [1] (setting [4]), the “Entrapment efficiency (%)” value came out at 86%, the PDI is listed as 0.07, the “Particle size (nm)” value is reported as 76 nm and the “Zeta (mV)” value is −15 mV. Moreover, the “particle size of the LNP@mRNA (in words)” value in data set [1] is listed as “small”.

Consider `CCCCCCC(CCCC)C(=O)OCCCCOC(=O)CCN(CCCO)CCC(=O)OCCCCOC(=O)C(CCCC)CCCCCC` (stereo not drawn) [Compound 6], for which, in data set [1] (setting [4]), the “Entrapment efficiency (%)” value is reported as 72%, the PDI was found to be 0.06, the “Particle size (nm)” value came to 125 nm and the “Zeta (mV)” value is given as −12 mV.

Take `CCCCCCCCC(CCCCCC)C(=O)OCCCCOC(=O)CCN(CCO)CCC(=O)OCCCCOC(=O)C(CCCCCC)CCCCCCCC` (stereo not drawn) [Compound 1]: in data set [1] (setting [4]), the “Entrapment efficiency (%)” value was 87%, the PDI came to 0.06, the “Particle size (nm)” value was determined as 95 nm and the “Zeta (mV)” value was −9 mV. In data set [1], the “particle size of the LNP@mRNA (in words)” value was “small”.

In the case of `CCCCCCCCC(CCCCCC)C(=O)OCCCCOC(=O)CCN(CCCCCO)CCC(=O)OCCCCOC(=O)C(CCCCCC)CCCCCCCC` (stereo not drawn) [Compound 4], in data set [1] (setting [4]), the “Entrapment efficiency (%)” value is on record as 82%, the PDI came out at 0.09, the “Particle size (nm)” value is recorded as 77 nm and the “Zeta (mV)” value is −12 mV. Moreover, the “particle size of the LNP@mRNA (in words)” value in data set [1] was “small”.

On to `CCCCCCC(CCCC)C(=O)OCCCCOC(=O)CCN(CCO)CCC(=O)OCCCCOC(=O)C(CCCC)CCCCCC` (stereo not drawn) [Compound 5], for which, in data set [1] (setting [4]), the “Entrapment efficiency (%)” value is listed as 80%, the PDI is 0.10, the “Particle size (nm)” value was found to be 114 nm and the “Zeta (mV)” value is −13 mV.

As for `CCCCCCC(CCCC)C(=O)OCCCCOC(=O)CCN(CCCCO)CCC(=O)OCCCCOC(=O)C(CCCC)CCCCCC` (stereo not drawn) [Compound 7], in data set [1] (setting [4]), the “Entrapment efficiency (%)” value was 82%, the PDI was 0.05, the “Particle size (nm)” value was 116 nm and the “Zeta (mV)” value is reported as −18 mV. Further, in the data set on mice (Example 25 LNP (DSPC), comparison among compounds 1-8, FIG. 1), the “maximum fluorescence of intramuscular injection of LNP@mRNA (effect)” value is on record as “better”. Also, the “organ distribution of mRNA expression” value in the data set with mice (Example 25 LNP (DSPC), FIG. 2 and 3) is “manly expressed in spleen”.

Regarding `CCCCCCC(CCCC)C(=O)OCCCCOC(=O)CCN(CCCCCO)CCC(=O)OCCCCOC(=O)C(CCCC)CCCCCC` (stereo not drawn) [Compound 8], in data set [1] (setting [4]), the “Entrapment efficiency (%)” value was determined as 82%, the PDI is reported as 0.07, the “Particle size (nm)” value is listed as 124 nm and the “Zeta (mV)” value is −12 mV.

Regarding `CCCCCCC(CCCC)C(=O)OCCCCOC(=O)CCN(CCCn1ccnc1)CCC(=O)OCCCCOC(=O)C(CCCC)CCCCCC` (stereo not drawn) [Compound 13], in data set [1] (setting [3]), the “Entrapment efficiency (%)” value came out at 85%, the PDI is on record as 0.03, the “Particle size (nm)” value turned out to be 156 nm and the “Zeta (mV)” value is −19 mV. Moreover, the “maximum fluorescence of intramuscular injection of LNP@mRNA (effect)” value with mice (Example 26 LNP (DOPC), comparison of compounds 13 and 14, FIG. 4) is listed as “better”. For the same molecule, the “Zeta electric potential of the LNP@mRNA” value in data set [2] (pH about 2) is “strong positive electricity”. Moreover, in data set [2] (pH close to 5), the “Zeta electric potential of the LNP@mRNA” value is given as “electric neutrality”. In addition, the “Zeta electric potential of the LNP@mRNA” value in data set [2] (pH greater than 8) is “strong electronegativity”.
